Measured values: BindingDB's records for doi:10.1016/j.bmc.2015.01.060 (University of Florida, 2015)

Legend:
[1] = target: T1, 5-hydroxytryptamine receptor 2C (Homo sapiens, UniProt P28335); experiment: Displacement of [3H]Mesulergine from human 5-HT2C-INI receptor expressed in HEK293 cells by scintillation counting analysis
T1 sequence (P28335 whole entry): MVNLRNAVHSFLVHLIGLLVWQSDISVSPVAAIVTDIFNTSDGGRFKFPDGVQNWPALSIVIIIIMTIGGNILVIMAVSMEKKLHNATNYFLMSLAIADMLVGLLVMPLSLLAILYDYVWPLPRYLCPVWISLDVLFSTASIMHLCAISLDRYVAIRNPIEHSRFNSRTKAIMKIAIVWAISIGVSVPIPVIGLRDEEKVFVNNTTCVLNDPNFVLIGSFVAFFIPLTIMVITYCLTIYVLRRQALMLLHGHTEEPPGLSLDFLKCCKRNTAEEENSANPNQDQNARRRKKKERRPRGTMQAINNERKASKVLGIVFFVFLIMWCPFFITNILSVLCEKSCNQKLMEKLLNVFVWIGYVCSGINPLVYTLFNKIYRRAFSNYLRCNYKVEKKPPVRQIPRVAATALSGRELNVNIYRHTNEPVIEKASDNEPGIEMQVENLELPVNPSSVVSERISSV

[2] = target: 5-hydroxytryptamine receptor 2B (Homo sapiens, UniProt P41595); experiment: Displacement of [3H]Mesulergine from human 5-HT2B receptor expressed in HEK293 cells by scintillation counting analysis
Sequence of 5-hydroxytryptamine receptor 2B (P41595 whole entry): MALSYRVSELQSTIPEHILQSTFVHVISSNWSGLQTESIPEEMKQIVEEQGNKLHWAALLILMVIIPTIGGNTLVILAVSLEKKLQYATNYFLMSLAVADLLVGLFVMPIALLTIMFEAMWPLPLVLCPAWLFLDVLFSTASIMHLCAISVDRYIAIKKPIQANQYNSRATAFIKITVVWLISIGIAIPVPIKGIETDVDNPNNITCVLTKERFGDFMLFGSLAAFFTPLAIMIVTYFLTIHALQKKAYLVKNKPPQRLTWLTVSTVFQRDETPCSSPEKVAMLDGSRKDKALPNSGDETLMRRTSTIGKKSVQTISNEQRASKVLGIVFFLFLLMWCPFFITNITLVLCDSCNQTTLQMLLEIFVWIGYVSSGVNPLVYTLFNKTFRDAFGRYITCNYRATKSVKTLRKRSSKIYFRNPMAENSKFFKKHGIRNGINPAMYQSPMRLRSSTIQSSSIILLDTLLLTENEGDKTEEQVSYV

CN(C)[C@H]1Cc2ccccc2[C@H](c2ccc([N+](=O)[O-])cc2)C1
Ki [1]: 1 µM | Ki [2]: 4.1 µM
